Experimental data taken from patent publication US11345659B2, “Pipecolic esters for inhibition of the proteasome” (THE BOARD OF REGENTS OF THE UNIVERSY OF TEXAS SYSTEM, priority 2018, dated 2022).

Molecular target: T1, 26 S proteasome (Homo sapiens, UniProt P25787+P25789)
T1 construct: purified from erythrocytes; purchased Enzo Life Sciences, Inc. (Farmingdale, N.Y.); host or cells: human erythrocytes
Experiment: 26 S proteasome challenged with mixture of three substrates (surrogate proteinase assay)
Assay type: biochemical
Conditions: mixture of ChT-L, T-L and Casp-L substrates, 33.3 μM each; read-out: IC50, 26 S proteasome with substrates for all three peptidases
Description: Human housekeeping 20 S and 26 S and complexes purified from erythrocytes were purchased from Enzo Life Sciences, Inc. (Farmingdale, N.Y.). The 1 mg/ml stock 20 S proteasome was diluted to 0.2 mg/ml working solution in 50 mM Tris/HCl, pH 8 containing 20% glycerol (dilution buffer). For the 26 S proteasome stock, the dilution buffer was supplemented with 2 mM ATP, 1 mM MgCl2, and 1 mM DTT (dithiothreitol). The ChT-L peptidase activity was measured as arbitrary intensity units of fluorescence emitted by 7-amino-4-methylcoumarin (AMC) released from the canonical model peptide substrate succinyl-LeuLeuValTyr-methylcoumarin (SucLLVY-MCA; Bachem Bioscience Inc., Philadelphia, Pa.), used at concentration of 100 μM. Free AMC (Sigma-Aldrich, St. Louis, Mo.) was used as the standard. The Rpt5 C-terminal peptide was synthesized (standard solid-phase peptide chemistry) and purified to at least 98% purity by GenScript (Piscataway, N.J.). The Rpt5 peptide and the peptide substrate were dissolved in dimethylsulfoxide (DMSO) and such stock solutions were stored at −20° C. The total concentration of DMSO in final reaction mixtures never exceeded 3% (vol/vol).
The reaction was carried out in 96-well plates, in 100 μL of reaction mixture, for 1 hour at 37° C. In the case of 20 S proteasome, the reaction mixture consisted of 45 mM Tris/HCl, pH 8, 100 mM KCl with premixed 10 μM Rpt5 peptide and 100 μM Suc-LLVY-MCA, to which 200 ng (nearly […]) of proteasome and desired concentration of tested compounds in 1 μL of DMSO were added. […] The reaction rates were calculated from a linear segment of kinetic curves constructed from measurements in 1-minutes intervals (Fluoroskan Ascent plate reader; Thermo Fisher Scientific Inc., Waltham, Mass.). Reaction rates were calculated using a linear fit executed by Slope Analyzer and Enzyme Kinetics applications launched within Origin Pro 2017 (OriginLab). […]

COc1cc(CCCOC(=O)[C@@H]2CCCCN2C(=O)OCc2ccccc2)cc(OC)c1OC [Compound 3, 1-benzyl 2-(3-(3,4,5-trimethoxyphenyl)propyl) (S)-piperidine-1,2-dicarboxylate]
IC50: 1.2 µM
